Patent US4503055A, “Derivatives of [4-(piperazin-1-yl-phenyloxymethyl)-1,3-dioxolan-2-ylmethyl]-1H-imidazol es and 1H-1,2,4-triazoles” (Janssen Pharmaceutica, N.V., priority 1981, dated 1985)

Legend:
Candida albicans [1] = assay: Activity against crop candidosis in turkeys; format: in vivo; details: medicated feed for 13 consecutive days from day of infection, crops of 50% of animals completely negative for Candida albicans
Protocol: Turkeys of 14 days old are infected in the crop with 4.10^6 Candida albicans cells, grown on Sabouraud broth for 48 hours at 37° C. and diluted with saline. The volume of the inoculum is 1 ml. The drugs under investigation are premixed in 500 mg of lacton and thereafter admixed in 1000 g of meal without any additives. The concentration of the drug under investigation in the meal is expressed in mg/kg. The animals are given the medicated feed for 13 consecutive days starting on the day of infection. At the end of the experiment all animals are sacrificed. At autopsy the crops are removed, emptied and grinded in an ultra-turrax mixer in 15 ml of sterile saline. Colony counting is done on Sabouraud agar and the results given in the table represents the ED50, i.e., the dose of the drug whereby the crops of 50% of the animals are completely negative for Candida albicans.

Candida albicans [2] = assay: Activity against vaginal candidosis in rats; format: in vivo, Female Wistar rats; details: 336 h, oral, once a day for two days from day of infection, active at the 14th day after infection, read-out: Vaginal candidosis in rats: lowest effective dose in mg/kg orally
Protocol: Female Wistar rats of ±100 g body weight are used. They are ovariectomized and hysterectomized and after three weeks of recovery, 100 μg of oestradiol undecylate in sesame oil is given subcutaneously once a week for 3 consecutive weeks. The thus induced pseudooestrus is controlled by microscopic examination of vaginal smears. Food and water are left available ad libitum. The rats are infected intravaginally with 8.10^5 cells of Candida albicans, grown on Sabouraud broth for 48 hours at 37° C. and diluted with saline. The date of infection varies from day +25 to day +32 after surgical intervention, depending on the appearance of signs of induced pseudooestrus. The drugs under investigation are administered orally once a day for two days starting from the day of infection. For each experiment there are placebo treated controls. The results are assessed by taking vaginal smears with sterile swabs on several days after the infection. The swabs are put into Sabouraud broth in petri-dishes and incubated for 48 hours at 37° C. If no growth of Candida albicans occurs, i.e., when the animals are negative at the end of the experiment, this is due to drug administration because it never happens in placebo treated controls. The table below gives the lowest oral dose of the drug under investigation which is found active at the 14th day after infection.

Structure (SMILES)	Crop candidosis in turkeys: ED50 in mg/kg feed (Candida albicans [1]) [mg/kg feed]	minimal effective dose (Candida albicans [2]) [mg/kg]
Cc1ccccc1NC(=O)CN1CCN(c2ccc(OC[C@H]3CO[C@](Cn4ccnc4)(c4ccc(Cl)cc4Cl)O3)cc2)CC1 (relative stereo)	16	2.5
O=C(C=Cc1ccc(Cl)cc1)N1CCN(c2ccc(OC[C@H]3CO[C@](Cn4cncn4)(c4ccc(Cl)cc4Cl)O3)cc2)CC1	16	–
CCOC(=O)COC(=O)N1CCN(c2ccc(OC[C@H]3CO[C@](Cn4ccnc4)(c4ccc(Cl)cc4Cl)O3)cc2)CC1 (relative stereo)	31	2.5
O=C(CN1CCN(c2ccc(OC[C@H]3CO[C@](Cn4ccnc4)(c4ccc(Cl)cc4Cl)O3)cc2)CC1)Nc1c(Cl)cccc1Cl (relative stereo)	31	2.5
Cc1ccc(S(=O)(=O)N2CCN(c3ccc(OC[C@H]4CO[C@](Cn5cncn5)(c5ccc(Cl)cc5Cl)O4)cc3)CC2)cc1 (relative stereo)	< 31	–
Cc1ccc(NC(=O)CN2CCN(c3ccc(OC[C@H]4CO[C@](Cn5ccnc5)(c5ccc(Cl)cc5Cl)O4)cc3)CC2)cc1 (relative stereo)	16	–
Clc1ccc(CN2CCN(c3ccc(OC[C@H]4CO[C@](Cn5ccnc5)(c5ccc(Cl)cc5Cl)O4)cc3)CC2)cc1 (relative stereo)	< 31	–
